For 32 molecules, Ki results are on record in patent US20060063759A1, “Tricyclic steroid hormone nuclear receptor modulators” (priority 2002, published 2006).

The target in one experiment is T1, human MR (Homo sapiens, UniProt P08235).
T1 construct: The full length human MR gene is cloned from a human kidney or human brain cDNA library; His tag from the pAcHLT vector (own knowledge); made in house; host or cells: Sf9 insect cells (baculovirus, pAcHLT transfer vector)
T1 sequence (P08235 1-984): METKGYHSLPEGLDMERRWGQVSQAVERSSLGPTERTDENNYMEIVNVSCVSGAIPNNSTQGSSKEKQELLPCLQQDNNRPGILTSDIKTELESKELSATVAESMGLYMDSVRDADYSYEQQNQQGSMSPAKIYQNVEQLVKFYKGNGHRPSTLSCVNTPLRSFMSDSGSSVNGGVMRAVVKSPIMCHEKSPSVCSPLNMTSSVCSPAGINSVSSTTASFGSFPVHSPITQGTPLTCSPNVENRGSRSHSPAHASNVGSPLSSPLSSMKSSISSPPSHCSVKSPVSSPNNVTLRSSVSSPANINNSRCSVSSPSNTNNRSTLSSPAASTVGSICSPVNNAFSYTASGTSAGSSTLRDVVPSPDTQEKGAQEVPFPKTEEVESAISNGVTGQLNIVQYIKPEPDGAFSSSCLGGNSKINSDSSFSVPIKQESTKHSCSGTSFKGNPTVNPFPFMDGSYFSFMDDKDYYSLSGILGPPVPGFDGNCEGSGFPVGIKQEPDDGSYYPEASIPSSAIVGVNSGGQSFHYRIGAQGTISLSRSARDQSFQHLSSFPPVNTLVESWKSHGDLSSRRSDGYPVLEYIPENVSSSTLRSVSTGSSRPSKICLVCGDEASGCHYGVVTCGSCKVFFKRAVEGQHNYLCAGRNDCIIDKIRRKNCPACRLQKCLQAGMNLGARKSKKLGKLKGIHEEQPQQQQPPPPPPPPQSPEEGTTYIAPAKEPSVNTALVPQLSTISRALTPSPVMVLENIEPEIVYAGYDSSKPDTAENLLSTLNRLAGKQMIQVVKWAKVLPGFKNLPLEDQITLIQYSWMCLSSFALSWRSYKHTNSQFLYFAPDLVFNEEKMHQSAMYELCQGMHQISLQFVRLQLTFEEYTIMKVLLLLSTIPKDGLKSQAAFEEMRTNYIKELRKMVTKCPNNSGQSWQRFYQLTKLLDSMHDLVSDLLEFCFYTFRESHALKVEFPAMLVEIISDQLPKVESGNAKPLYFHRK
The experiment in a line: Mineralocorticoid Receptor Binding Assay ([3H]-aldosterone). The conditions noted are these: [3H]-aldosterone binding, human MR expressed in Sf9 cells; read-out: MR Ki. In short, it runs like this:
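Receptor source: freeze-thaw lysate of baculovirus-infected Sf9 cells carrying full-length human MR, 20-25 μg protein. Incubation ~16 h at 4 °C with shaking, pH 7.5 buffer containing 30 mM sodium molybdate and 10% glycerol.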

The target of another experiment is T2, glucocorticoid receptor (Homo sapiens, UniProt P04150).
T2 construct: containing 50-200 ug of A549 cell extract and 1.86 nM [^3H]-dexamethasone; host or cells: A549 human lung epithelial cells (sonicated cell extract)
T2 sequence (P04150 1-777): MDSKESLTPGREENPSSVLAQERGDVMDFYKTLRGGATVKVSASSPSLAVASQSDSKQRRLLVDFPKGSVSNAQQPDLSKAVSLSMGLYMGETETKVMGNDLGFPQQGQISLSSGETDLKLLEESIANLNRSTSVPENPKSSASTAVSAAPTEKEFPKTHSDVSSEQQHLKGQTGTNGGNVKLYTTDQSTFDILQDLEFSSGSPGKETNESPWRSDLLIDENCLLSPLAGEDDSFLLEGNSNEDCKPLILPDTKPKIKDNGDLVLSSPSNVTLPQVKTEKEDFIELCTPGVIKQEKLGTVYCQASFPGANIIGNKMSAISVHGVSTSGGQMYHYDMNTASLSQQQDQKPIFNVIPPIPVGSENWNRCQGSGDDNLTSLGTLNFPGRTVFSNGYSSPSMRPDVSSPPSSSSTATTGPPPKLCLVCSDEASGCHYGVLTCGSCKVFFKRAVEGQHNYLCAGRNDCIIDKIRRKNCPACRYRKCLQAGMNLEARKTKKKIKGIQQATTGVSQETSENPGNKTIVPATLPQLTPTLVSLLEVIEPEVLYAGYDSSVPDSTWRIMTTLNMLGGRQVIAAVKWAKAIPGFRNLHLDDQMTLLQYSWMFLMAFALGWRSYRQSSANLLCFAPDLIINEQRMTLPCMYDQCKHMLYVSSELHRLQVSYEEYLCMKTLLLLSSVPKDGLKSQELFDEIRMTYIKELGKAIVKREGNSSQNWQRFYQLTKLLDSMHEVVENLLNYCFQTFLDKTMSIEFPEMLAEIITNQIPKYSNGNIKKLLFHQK
The experiment is described as follows: Glucocorticoid Receptor Binding Assay ([3H]-dexamethasone, A549 cell extract). Particulars: [3H]-dexamethasone binding, read-out: GR Ki. In a few lines:
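Displacement of [3H]-dexamethasone (1.86 nM) from glucocorticoid receptor in sonicated A549 lung epithelial cell extracts, 16 h at 4 °C, pH 7.2 molybdate-containing buffer. Bound radioactivity was scintillation-counted after charcoal/dextran stripping of free ligand.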

Structures are written as SMILES. A value given as a limit tells only on which side of the number the result lay.

Consider `COc1ccc2c(c1)SCc1ccccc1C2=Cc1cccc(NS(C)(=O)=O)c1` [Example 747], for which the inhibition constant Ki at human MR and at glucocorticoid receptor was less than 500 nM each time.
For the molecule `CNc1cccc(C=C2c3ccccc3CCc3ccccc32)c1` [Example 118, [3-(10,11-Dihydro-dibenzo[a,d]cyclohepten-5-ylidenemethyl)-phenyl]-methyl-amine], the Ki at human MR and on glucocorticoid receptor was less than 500 nM throughout.
Regarding `Cc1cccc2c1OCc1ccccc1/C2=C/c1cccc(NS(C)(=O)=O)c1` [Example 673], the Ki on human MR and on glucocorticoid receptor was less than 500 nM in each case.
As to `CS(=O)(=O)Nc1cccc(C=C2c3ccc(Cl)cc3CSc3ccccc32)c1` [Example 693], the Ki at human MR and on glucocorticoid receptor was less than 500 nM in each case.
Turning to `CCCCS(=O)(=O)Nc1ccc(C=C2c3ccccc3CCc3ccccc32)cc1` [Example 109, Butane-1-sulfonic acid [4-(10,11-dihydro-dibenzo[a,d]cyclohepten-5-ylidenemethyl)-phenyl]-amide], the inhibition constant (Ki) at human MR and on glucocorticoid receptor was less than 500 nM throughout.
Consider `O=C(Nc1cccc(/C=C2/c3ccccc3CCc3cc(Cl)ccc32)c1)C(F)(F)F` [Example 414], for which the Ki at human MR and at glucocorticoid receptor was less than 500 nM each time.
As for `CS(=O)(=O)Nc1cccc(CC2c3ccccc3CCc3cccnc32)c1` (stereo not shown) [Example 538], the Ki at human MR and on glucocorticoid receptor was less than 500 nM in each case.
For the molecule `C(=C1c2ccccc2CCc2sccc21)c1ccccc1` [Example 489], the figures for the Ki on human MR and at glucocorticoid receptor were less than 500 nM and less than 10000 nM, respectively.
Take `CCS(=O)(=O)Nc1cccc(C=C2c3ccccc3CCc3c(Cl)cccc32)c1` (mixture of isomers) [Example 208(a), Ethanesulfonic acid [3-(1-chloro-10,11-dihydro-dibenzo[a,d]cyclohepten-5-ylidenemethyl)-phenyl]-amide]: the Ki on human MR and on glucocorticoid receptor was less than 500 nM in each case.
Regarding `CS(=O)(=O)Nc1cccc(/C=C2/c3ccccc3CCc3ncccc32)c1` [Example 251, (Z)-N-[3-(10,11-Dihydro-benzo[4,5]cyclohepta[1,2-b]pyridin-5-ylidenemethyl)-phenyl]-methanesulfonamide], the Ki on human MR and on glucocorticoid receptor was less than 500 nM in each case.
On to `COc1cccc2c1/C(=C/c1cccc(NS(C)(=O)=O)c1)c1ccccc1OC2` [Example 703], for which the Ki at human MR and at glucocorticoid receptor was less than 500 nM each time.
For the molecule `FC(F)c1ccc(C=C2c3ccccc3CCc3ccccc32)cc1` [Example 73, 5-(4-Difluoromethyl-benzylidene)-10,11-dihydro-5H-dibenzo[a,d]cycloheptene], the Ki at human MR was less than 500 nM; on glucocorticoid receptor, less than 1000 nM.
On the same counts, the results for `C(=C1c2ccccc2CCc2ccccc21)c1cccc(-c2ccn[nH]2)c1` [Example 229, 5-[3-(10,11-Dihydro-dibenzo[a,d]cyclohepten-5-ylidenemethyl)-phenyl]-1H-pyrazole] are less than 500 nM and less than 1000 nM.
On the same counts, the results for `CC(C)n1c(=O)[nH]c2cc(/C=C3\c4ccccc4COc4cc(F)ccc43)ccc21` [Example 612, 5-(3-Fluoro-6H-dibenzo[b,e]oxepin-11-ylidenemethyl)-1-isopropyl-1,3-dihydro-benzoimidazol-2-one] are less than 500 nM and less than 10000 nM.
Consider `CS(=O)(=O)Nc1cccc(/C=C2/c3ccccc3OCc3c(Cl)cccc32)c1` [Example 274, N-[3-(7-Chloro-6H-dibenzo[b,e]oxepin-11-ylidenemethyl)-phenyl]-methanesulfonamide], for which the Ki on human MR and on glucocorticoid receptor was less than 500 nM in each case.
Take `COc1ccc2c(c1)[C@@H](Cc1cccc(NS(C)(=O)=O)c1)c1ccccc1CC2` [Example 349]: the inhibitory constant (Ki) at human MR and on glucocorticoid receptor was less than 500 nM in each case.
As to `CS(=O)(=O)Nc1cccc(/C=C2\c3cc(F)ccc3COc3ccccc32)c1` [Example 730], the Ki at human MR and at glucocorticoid receptor was less than 500 nM in each case.
Take `CS(=O)(=O)Nc1cccc(C=C2c3ccccc3CCc3occc32)c1` [Example 504]: the Ki on human MR and at glucocorticoid receptor was less than 500 nM each time.
On to `C/C(=C1\c2ccccc2COc2ccc(F)cc21)c1cccc(NS(C)(=O)=O)c1` [Example 789], for which the Ki at human MR and on glucocorticoid receptor was less than 500 nM each time.
As for `Cc1ccc2c(c1)CCc1cc(C)ccc1C2=Cc1cccc(NS(C)(=O)=O)c1` [Example 325], the Ki on human MR and on glucocorticoid receptor was less than 500 nM in each case.
With `C(=C1c2ccccc2CCc2ccccc21)c1ccc2ocnc2c1` [Example 217, 5-(10,11-Dihydro-dibenzo[a,d]cyclohepten-5-ylidenemethyl)-benzooxazole], the Ki is less than 500 nM on human MR and less than 10000 nM at glucocorticoid receptor.
In the case of `CS(=O)(=O)Nc1cccc(C=C2c3ccc(Cl)cc3CSc3cc(Cl)ccc32)c1` [Example 702], the Ki on human MR was less than 500 nM; on glucocorticoid receptor, less than 10000 nM.
Take `CS(=O)(=O)Nc1cccc(/C=C2/c3ccccc3CCc3cc(C(F)(F)F)ccc32)c1` [Example 390]: the Ki on human MR and on glucocorticoid receptor was less than 500 nM each time.
With `CS(=O)(=O)Nc1cccc(/C=C2\c3ccccc3CCc3nc(N)sc32)c1` [Example 559], the Ki on human MR and at glucocorticoid receptor was less than 500 nM throughout.
As for `Fc1ccc(/C=C2/c3ccc(F)cc3CCc3ncccc32)cc1` [Example 581], the Ki at human MR is less than 500 nM; on glucocorticoid receptor, less than 10000 nM.
For `CS(=O)(=O)Nc1cccc(/C=C2\c3ccccc3CCc3ncsc32)c1` [Example 556], the Ki at human MR and on glucocorticoid receptor was less than 500 nM throughout.
In the case of `CS(=O)(=O)Nc1cccc(/C=C2\c3cc(Cl)ccc3COc3ccccc32)c1` [Example 727], the Ki at human MR and on glucocorticoid receptor was less than 500 nM throughout.
As to `Oc1cccc(/C=C2/c3ccccc3CCc3cc(C(F)F)ccc32)c1` [Example 334], the Ki at human MR and on glucocorticoid receptor was less than 500 nM each time.
Take `CS(=O)(=O)Nc1cccc(/C=C2\c3ccccc3CCc3cc(C(=O)O)ccc32)c1` [Example 417]: the Ki at human MR and on glucocorticoid receptor was less than 500 nM in each case.
Turning to `CS(=O)(=O)Nc1cccc(/C=C2\c3ccc(F)cc3CCc3nc(Cl)sc32)c1` [Example 550], the Ki at human MR and on glucocorticoid receptor was less than 500 nM each time.
Consider `COC(=O)Nc1cccc(C=C2c3ccccc3CCc3cc(Cl)ccc32)c1` [Example 396], for which the Ki at human MR and on glucocorticoid receptor was less than 500 nM each time.
For the molecule `CS(=O)(=O)Nc1cccc(/C=C2\c3ccc(Cl)cc3CCc3sc(Cl)cc32)c1` [Example 482, N-[3-(2,7-Dichloro-9,10-dihydro-1-thia-benzo[f]azulen-4-ylidenemethyl)-phenyl]-methanesulfonamide], the Ki at human MR and on glucocorticoid receptor was less than 500 nM throughout.

Broadly, the Ki is the dissociation constant of the complex between target and ligand, obtained from inhibition or displacement.
